In patent US7452886B2, “Pyrrolo pyrimidines as agents for the inhibition of cystein proteases” (Novartis AG, priority 2001, dated 2008):
pIC50: −log10 of the molar value.

Target: T1, recombinant human cathepsin K (Homo sapiens, UniProt P43235)
T1 sequence (P43235 115-329): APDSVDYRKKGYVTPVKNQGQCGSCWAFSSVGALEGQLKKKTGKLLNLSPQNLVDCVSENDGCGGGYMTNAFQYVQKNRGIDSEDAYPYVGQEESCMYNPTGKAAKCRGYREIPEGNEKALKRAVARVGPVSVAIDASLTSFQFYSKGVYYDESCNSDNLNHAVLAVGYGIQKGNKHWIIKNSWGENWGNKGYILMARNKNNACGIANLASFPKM
Assay: In vitro inhibition of recombinant human cathepsin K (Z-Phe-Arg-AMCA fluorescence assay)
Assay type: biochemical
Settings: recombinant human cathepsin K 0.16 nM, Z-Phe-Arg-AMCA substrate, pH 7.0, 30 min preincubation, 30 min incubation, ambient temperature
Experimental: The In Vitro assay is Carried out as Follows:
The assay is performed in 96 well microtiter plates at ambient temperature using recombinant human cathepsin K. Inhibition of cathepsin K is assayed at a constant enzyme (0.16 nM) and substrate concentration ([…] Z-Phe-Arg-AMCA—Peptide Institute Inc. Osaka, Japan) in 100 mM sodium phosphate buffer, pH 7.0, containing 2 mM dithiothreitol 20 mM Tween 80 and 1 mM EDTA. Cathepsin K is preincubated with the inhibitors for 30 min, and the reaction is initiated by the addition of substrate. After 30 min incubation the reaction is stopped by the addition of E-64 (2 mM), and fluorescence intensity is read on a multi-well plate reader at excitation and emission wavelengths of 360 and 460 nm, respectively. […] Thus for example, the compounds of Examples 6-15 and 7-45 have IC50s for inhibition of human cathepsin K of 1 nM and 0.6 nM respectively.

Row | pIC50 | Structure (SMILES)
1 | 9.22 | CC(C)(C)Cn1c(CN2CCC3(CC2)NC(=O)NC3=O)cc2cnc(C#N)nc21 [Example 7-45]
2 | 9.00 | Cc1ccc(N2CCN(Cc3cc4cnc(C#N)nc4n3CC(C)(C)C)CC2)cc1 [Example 6-15]
